Reference: patent US8486931B2, “Substituted oxindole compounds” (Abbott GmbH & Co. KG, priority 2007, dated 2013)
Counter-ions that a name gives are not always drawn.

Biological target: T1, human vasopressin V1b receptor (Homo sapiens, UniProt P47901)
T1 construct: expressed in transfected cells; host or cells: CHO-K1 (cell line hV1b-3H2_CHO), membrane preparation
T1 sequence (P47901 1-424): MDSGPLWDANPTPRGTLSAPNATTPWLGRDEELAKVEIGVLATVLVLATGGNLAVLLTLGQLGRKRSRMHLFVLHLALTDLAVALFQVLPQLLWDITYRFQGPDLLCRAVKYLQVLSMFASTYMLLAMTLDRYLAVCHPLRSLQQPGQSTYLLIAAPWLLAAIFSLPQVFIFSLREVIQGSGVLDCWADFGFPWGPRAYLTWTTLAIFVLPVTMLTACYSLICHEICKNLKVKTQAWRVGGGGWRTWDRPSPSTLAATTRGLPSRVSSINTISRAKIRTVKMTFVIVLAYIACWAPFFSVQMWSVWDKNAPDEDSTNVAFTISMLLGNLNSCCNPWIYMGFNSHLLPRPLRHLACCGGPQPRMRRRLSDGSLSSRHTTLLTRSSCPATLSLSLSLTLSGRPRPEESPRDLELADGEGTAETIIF
Assay: Vasopressin V1b receptor binding assay
Conditions: membranes from CHO-K1 cells with stably expressed human V1b receptors, 1.5 nM 3H-AVP displacement; with more than one stereogenic center: the diastereomer with stronger affinity
Description: Such compounds can be investigated in suitable assays which establish the affinity to a receptor, with the affinity constant Ki represening a measure of the potency of the compounds and a smaller value representing a larger potency. The compounds of the invention were tested in the following receptor binding assay for their affinity for the V1 b receptor.
Vasopressin V1 b Receptor Binding Assay:
The test substances were dissolved in a concentration of 10^−2 M in DMSO (dimethyl sulfoxide) and further diluted to 5×10^−4 M to 5×10^−9 M in DMSO. This series of DMSO predilutions was diluted 1:10 with assay buffer. The substance concentration was again diluted 1:5 in the assay mixture (2% DMSO in the mixture).
The membrane pellet was again homogenized and centrifuged as described and then taken up in 50 mM Tris-HCl, pH 7.4, homogenized and stored in aliquots frozen in liquid nitrogen at −190° C.
The incubation buffer was: 50 mM Tris, 10 mM MgCl2, 0.1% BSA, pH 7.4.
The nonspecific binding was determined with 1 μM AVP (Bachem #H1780). All determinations were carried out as triplicate determinations. After incubation (60 minutes at room temperature), the free radioligand was removed by vacuum filtration (Skatron cell harvester 7000) through Whatman GF/B glass fiber filter mats, and the filters were transferred into scintillation vials. The liquid scintillation measurement took place in a Tricarb model 2000 or 2200CA instrument (Packard). Conversion of the measured cpm into dpm was carried out with the aid of a standard quench series.
The binding parameters were calculated by nonlinear regression in SAS.
The above assay was used to measure the affinities of the compounds of the invention for the human vasopressin V1 b receptor and to determine with affinity constants (Ki).

`CCOc1cc(F)ccc1C1(N2CCN(c3ccncc3)CC2)C(=O)N(S(=O)(=O)c2ccc(OC)c3cccnc23)c2ccc(C#N)cc21` (racemic) [Example 31, (±)-5-Cyano-3-(2-ethoxy-4-fluorophenyl)-1-(5-methoxyquinoline-8-sulfonyl)-3-(4-pyridin-4-ylpiperazin-1-yl)-2,3-dihydro-1H-indol-2-one] and `CCOc1ccccc1C1(N2CCN(c3ccncc3)CC2)C(=O)N(S(=O)(=O)c2ccc(OCC)c3cccnc23)c2ccc(C#N)cc21` (single isomer, unassigned; (+)) [Example 67, (+)-5-Cyano-3-(2-ethoxyphenyl)-1-(5-ethoxyquinoline-8-sulfonyl)-3-(4-pyridin-4-yl-piperazin-1-yl)-2,3-dihydro-1H-indol-2-one] fall in the same range of Ki: 10 to 50 nM for the first, 10 to 50 nM for the second.

`CCOc1cc(OC)ccc1C1(N2CCC(N3CCN(C)CC3)CC2)C(=O)N(S(=O)(=O)c2ccc(OC)cn2)c2ccc(C#N)cc21` (racemic) [Example 171, (±)-5-Cyano-3-(2-ethoxy-4-methoxy-phenyl)-1-(5-methoxy-pyridine-2-sulfonyl)-3-[4-(4-methyl-piperazin-1-yl)-piperidin-1-yl]-2,3-dihydro-1H-indol-2-one] and `CCOc1ccc(OC)cc1C1(N2CCN(c3ccnc(C)c3)CC2)C(=O)N(S(=O)(=O)c2ccc(OC)cn2)c2ccc(C#N)cc21` (single isomer, unassigned; (+)) [Example 164, (+)-5-Cyano-3-(2-ethoxy-5-methoxy-phenyl)-1-(5-methoxy-pyridine-2-sulfonyl)-3-[4-(2-methyl-pyridin-4-yl)-piperazin-l-yl]-2,3-dihydro-1H-indol-2-one] cannot be ordered by Ki: < 10 nM for the first, < 10 nM for the second.

`CCOc1nc(Cl)ccc1C1(N2CCC(N3CCN(C)CC3)CC2)C(=O)N(S(=O)(=O)c2ccc(OC)cn2)c2ccc(C#N)cc21` (racemic) [Example 170, (±)-5-Cyano-3-(6-chloro-2-ethoxy-pyridin-3-yl)-1-(5-methoxy-pyridine-2-sulfonyl)-3-[4-(4-methyl-piperazin-1-yl)-piperidin-1-yl]-2,3-dihydro-1H-indol-2-one] and `CCOc1ccc(OC)cc1C1(N2CC3CN(c4ccncc4)CC3C2)C(=O)N(S(=O)(=O)c2ccc(OC)cn2)c2ccc(C#N)cc21` (racemic) [Example 68, (±)-5-Cyano-3-(2-ethoxy-5-methoxyphenyl)-1-(5-methoxypyridine-2-sulfonyl)-3-(5-pyridin-4-ylhexahydropyrrolo[3,4-c]pyrrol-2-yl)-2,3-dihydro-1H-indol-2-one] cannot be ordered by Ki: < 10 nM for the first, < 10 nM for the second.

`CCOc1ccc(OC)cc1C1(N2CCC(N3CCNCC3)CC2)C(=O)N(S(=O)(=O)c2ccc(OC)c3cccnc23)c2ccc(C#N)cc21` (racemic) [Example 87, (±)-5-Cyano-3-(2-ethoxy-5-methoxyphenyl)-1-(5-methoxyquinoline-8-sulfonyl)-3-(4-piperazin-1-ylpiperidin-1-yl)-2,3-dihydro-1H-indol-2-one hydrochloride] and `CCOc1ncccc1C1(N2CCN(c3ccncc3)CC2)C(=O)N(S(=O)(=O)c2cccc3cccnc23)c2ccc(C#N)cc21` (racemic) [Example 5, (±)-5-Cyano-3-(2-ethoxypyridin-3-yl)-3-(4-pyridin-4-ylpiperazin-1-yl)-1-(quinoline-8-sulfonyl)-2,3-dihydro-1H-indol-2-one] cannot be ordered by Ki: < 10 nM for the first, < 10 nM for the second.

`CCOc1ccc(OC)cc1C1(N2C[C@@H]3C[C@H]2CN3c2ccncc2)C(=O)N(S(=O)(=O)c2ccc(C)cn2)c2ccc(C#N)cc21` (mixture of isomers) [Example 20, (±)-5-Cyano-3-(2-ethoxy-5-methoxyphenyl)-1-(5-methylpyridine-2-sulfonyl)-3-((1S, 4S)-5-pyridin-4-yl-2,5-diazabicyclo[2.2.1]hept-2-yl)-2,3-dihydro-1H-indol-2-one] and `COc1ccc(OC(C)C)c(C2(N3CCN(c4ccncc4)CC3)C(=O)N(S(=O)(=O)c3ccc(C)cn3)c3ccc(C#N)cc32)c1` (racemic) [Example 21, (±)-5-Cyano-3-(2-isopropoxy-5-methoxyphenyl)-1-(5-methylpyridine-2-sulfonyl)-3-(4-pyridin-4-ylpiperazin-1-yl)-2,3-dihydro-1H-indol-2-one] fall in the same range of Ki: 10 to 50 nM for the first, 10 to 50 nM for the second.

First: CCOc1nc(Cl)ccc1C1(N2CCCN(c3ccncc3)CC2)C(=O)N(S(=O)(=O)c2ccc(OC)cn2)c2ccc(C#N)cc21 (racemic) [Example 168, (±)-5-Cyano-3-(6-chloro-2-ethoxy-pyridin-3-yl)-1-(5-methoxy-pyridine-2-sulfonyl)-3-(4-pyridin-4-yl-[1,4]diazepan-1-yl)-2,3-dihydro-1H-indol-2-one]
Second: CCOc1ccccc1C1(N2CCN(c3ccncc3)CC2)C(=O)N(S(=O)(=O)c2cccc3c(CC)ccnc23)c2ccc(C#N)cc21 (racemic) [Example 84, (±)-5-Cyano-3-(2-ethoxyphenyl)-1-(4-ethylquinoline-8-sulfonyl)-3-(4-pyridin-4-yl-piperazin-1-yl)-2,3-dihydro-1H-indol-2-one]
The Ki of the first is higher: 10 to 50 nM for the first, < 10 nM for the second.

“(±)-5-Cyano-3-(6-chloro-2-ethoxypyridin-3-yl)-1-(2,4-dimethoxybenzenesulfonyl)-3-[4-(2-methylpyridin-4-yl)piperazin-1-yl]-2,3-dihydro-1H-indol-2-one [Example 28]” and `CCOc1nc(Cl)ccc1C1(N2CCN(c3ccnc(C(C)C)c3)CC2)C(=O)N(S(=O)(=O)c2ccc(OC)cn2)c2ccc(C#N)cc21` (racemic) [Example 167, (±)-5-Cyano-3-(6-chloro-2-ethoxy-pyridin-3-yl)-3-[4-(2-isopropyl-pyridin-4-yl)-piperazin-1-yl]-1-(5-methoxy-pyridine-2-sulfonyl)-2,3-dihydro-1H-indol-2-one] fall in the same range of Ki: 10 to 50 nM for the first, 10 to 50 nM for the second.

First: CCOc1ccccc1C1(N2CCN(c3ccncc3)CC2)C(=O)N(S(=O)(=O)c2cccc3c(C)ccnc23)c2ccc(C#N)cc21 (single isomer, unassigned; (+)) [Example 63, (+)-5-Cyano-3-(2-ethoxyphenyl)-1-(4-methylquinoline-8-sulfonyl)-3-(4-pyridin-4-yl-piperazin-1-yl)-2,3-dihydro-1H-indol-2-one]
Second: COc1cccc(C2(N3CCN(c4ccncc4)CC3)C(=O)N(S(=O)(=O)c3cccc4cccnc34)c3ccc(Cl)cc32)c1OC (racemic) [Example 2, (±)-5-Chloro-3-(2,3-dimethoxyphenyl)-3-(4-pyridin-4-ylpiperazin-1-yl)-1-(quinoline-8-sulfonyl)-1,3-dihydroindol-2-one]
The Ki of the first is lower: < 10 nM for the first, 10 to 50 nM for the second.

`CCOc1ccccc1C1(N2CCN(c3ccncc3)CC2)C(=O)N(S(=O)(=O)c2ccc(OC)cn2)c2ccc(C#N)cc21` (racemic) [Example 22, (±)-5-Cyano-3-(2-ethoxyphenyl)-1-(5-methoxypyridine-2-sulfonyl)-3-(4-pyridin-4-yl-piperazin-1-yl)-2,3-dihydro-1H-indol-2-one] and `CCOc1ccc(OC)cc1C1(N2CCCN(c3ccnc(C)c3)CC2)C(=O)N(S(=O)(=O)c2ccc(OC)c3cccnc23)c2ccc(C#N)cc21` (racemic) [Example 73, (±)-5-Cyano-3-(2-ethoxy-5-methoxyphenyl)-1-(5-methoxyquinoline-8-sulfonyl)-3-[4-(2-methylpyridin-4-yl)-[1,4]diazepan-1-yl]-2,3-dihydro-1H-indol-2-one] cannot be ordered by Ki: < 10 nM for the first, < 10 nM for the second.

Compared with `COc1ccc(C)cc1C1(N2CCN(c3ccncc3)CC2)C(=O)N(S(=O)(=O)c2cccc3cccnc23)c2ccc(C#N)cc21` (racemic) [Example 51, (±)-5-Cyano-3-(2-methoxy-5-methylphenyl)-3-(4-pyridin-4-ylpiperazin-1-yl)-1-quinoline-8-sulfonyl)-2,3-dihydro-1H-indol-2-one], `CCOc1ccccc1C1(N2CCN(c3ccnc(CC)c3)CC2)C(=O)N(S(=O)(=O)c2cccc3cccnc23)c2ccc(C#N)cc21` (racemic) [Example 56, (±)-5-Cyano-3-(2-ethoxyphenyl)-3-[4-(2-ethylpyridin-4-yl)piperazin-1-yl]-1-(quinoline-8-sulfonyl)-2,3-dihydro-1H-indol-2-one] is higher in Ki: < 10 nM for the first, 10 to 50 nM for the second.

With `CCOc1ccc(CC)cc1C1(N2CCN(c3ccnc(C(C)C)c3)CC2)C(=O)N(S(=O)(=O)c2ccc(OC)cn2)c2ccc(C#N)cc21` (racemic) [Example 166, (±)-5-Cyano-3-(2-ethoxy-5-ethyl-phenyl)-3-[4-(2-isopropyl-pyridin-4-yl)-piperazin-1-yl]-1-(5-methoxy-pyridine-2-sulfonyl)-2,3-dihydro-1H-indol-2-one] the Ki was < 10 nM.
